Here are results for 39 compounds from US6878742B2, “Heterocyclic sulfonamide inhibitors of beta amyloid production” (Wyeth, priority 2000, dated 2005).

Where “and” joins values, the source holds several entries; their conditions need not be identical. Equal entries are not always repeated.

In the first test the test system is amyloid precursor protein (APP) proteolysis. The test can be described thus: Repressor Release Assay (RRA). The test is classed as cell-based. The following applies: Conc 0.3 μg/mL; luciferase activity over diluent control; read-out: APPI Fold Increase. Put shortly: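 CHO-K1 cells grown in DMEM with 10% fetal bovine serum were transiently co-transfected with pRSVO-luc and APP-lacI constructs via Lipofectamine Plus, plated into opaque 96-well plates, and exposed to diluted compound in duplicate for 36-48 hours at 37° C. LucLite luciferase signal was read on a TopCount and expressed as fold increase in relative light units over Hepes/DMSO diluent control.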
As for `CC[C@H](C)[C@H](NS(=O)(=O)c1ccc(Cl)s1)C(C)O` (stereo partly drawn) [Example 119, 5-Chloro-N-[(S,S)-1-(1-hydroxyethyl)-2-methylbutyl]thiophene-2-sulfonamide], the fold induction at 0.3 µg/mL is 1.54.

Still in this test, the particulars now being: Conc 3 μg/mL; luciferase activity over diluent control; read-out: APPI Fold Increase.
Regarding `CC[C@H](C)[C@H](NS(=O)(=O)c1ccc(Cl)s1)C(C)O` (stereo partly drawn) [Example 119, 5-Chloro-N-[(S,S)-1-(1-hydroxyethyl)-2-methylbutyl]thiophene-2-sulfonamide], the fold induction at 3 µg/mL amounted to 2.49.

The same test, now with this note: Conc 10 μg/mL; luciferase activity over diluent control.
With `CCCCCC(O)C(NS(=O)(=O)c1ccc(Cl)s1)C(C)CC` (mixture of isomers) [Example 122], the “APPI Fold Increase” value is 1.68 fold and 1.8 fold. For the compound `CC(C)(C)[C@@H](CO)NS(=O)(=O)c1ccc(Cl)s1` [Example 98], the “APPI Fold Increase” value came to 2.43 fold.

Still in this test, the particulars now being: Conc 10 μg/mL; luciferase activity over diluent control; read-out: APPI Fold Increase.
With `CC[C@H](C)[C@H](NS(=O)(=O)c1ccc(Cl)s1)C(O)C=C(C)C` (stereo partly drawn) [Example 132, 5-chloro-N-{(S)-2-hydroxy-4-methyl-1-[(S)-1-methylpropyl]pent-3-enyl}thiophene-2-sulfonamide], the fold induction at 10 µg/mL is 1.68. Regarding `CC[C@H](C)[C@H](NS(=O)(=O)c1ccc(Cl)s1)C(O)(c1ccc(Cl)cc1)c1ccc(Cl)cc1` [Example 167, N-{(S,S)-1-[bis(4-chlorophenyl)(hydroxy)methyl]-2-methylbutyl}-5-chlorothiophene-2-sulfonamide], the fold induction at 10 µg/mL is 3.42. On to `CC[C@H](C)[C@H](NS(=O)(=O)c1cccs1)C(O)CCC1OCCCO1` (stereo partly drawn) [Example 150, N-{(S)-4-(1,3-dioxan-2-yl)-2-hydroxy-1-[(S)-1-methylpropyl]butyl}thiophene-2-sulfonamide], for which the fold induction at 10 µg/mL is 1.6.

Consider `CC[C@H](C)[C@H](NS(=O)(=O)c1ccc(Cl)s1)C(C)O` (stereo partly drawn) [Example 119, 5-Chloro-N-[(S,S)-1-(1-hydroxyethyl)-2-methylbutyl]thiophene-2-sulfonamide], for which the fold induction at 10 µg/mL was 4.1. The same measure, in the same setting: with `CC[C@H](C)[C@@H](CO)NS(=O)(=O)c1sc(Cl)cc1Br` [Example 1, 3-Bromo-5-chloro-N-[(1S,2S)-1-(hydroxymethyl)-2-methylbutyl]thiophene-2-sulfonamide] the figure was 1.57.

The test is the same for the next values; noted with them: Conc 20 μg/mL; luciferase activity over diluent control.
In the case of “5-bromo-N-{(S,S)-2-hydroxy-1-[(S)-1-methylpropyl]pent-4-enyl}thiophene-2-sulfonamide [Example 194]”, the “APPI Fold Increase” value is 9 fold and 5.3 fold. In the case of `O=S(=O)(NC1(CO)Cc2ccccc2C1)c1ccc(Cl)s1` [Example 180], the “APPI Fold Increase” value turned out to be 2.3 fold. With `CC[C@H](C)[C@@H](CO)NS(=O)(=O)c1cccs1` [Example 210, N-[(1S,2S)-1-(Hydroxymethyl)-2-methylbutyl]thiophene-2-sulfonamide], the “APPI Fold Increase” value is reported as 7.7 fold. Regarding “5-bromo-N-{(S,S)-1-[(S)-1-hydroxyethyl]-2-methylbutyl}thiophene-2-sulfonamide [Example 190]”, the “APPI Fold Increase” value is 4.4 fold and 2.6 fold.

Staying with this test, now noted: Conc 20 μg/mL; luciferase activity over diluent control; read-out: APPI Fold Increase.
As to `C[C@H](OCc1ccccc1)[C@@H](CO)NS(=O)(=O)c1ccc(Cl)s1` [Example 102, N-[(R,S)-2-(benzyloxy)-1-(hydroxymethyl)propyl]-5-chlorothiophene-2-sulfonamide], the fold induction at 20 µg/mL stood at 1.6. `CCC[C@H](C)[C@@H](CO)NS(=O)(=O)c1ccc(Cl)s1` [Example 33, 5-chloro-N-[(1S,2S)-1-(hydroxymethyl)-2-methylpentyl]thiophene-2-sulfonamide]: the fold induction at 20 µg/mL was 6.5.

In the case of `CCOC(=O)CNC1CCC([C@@H](CO)NS(=O)(=O)c2ccc(Cl)s2)CC1` (stereo partly drawn) [Example 220, 5-chloro-N-[(S)-2-hydroxy-1-(4-(carboethoxymethyl)aminocyclohexyl)ethyl]thiophene 2-sulfonamide], the fold induction at 20 µg/mL stood at 2.5. On to `CCCCC[C@H](c1ccc(OC)cc1)[C@@H](CO)NS(=O)(=O)c1ccc(Br)s1` [Example 64, 5-bromo-N-[(1S,2R)-1-(hydroxymethyl)-2-(4-methoxyphenyl)heptyl]thiophene-2-sulfonamide], for which the fold induction at 20 µg/mL was found to be 2.9. In the case of `O=S(=O)(N[C@H](CO)c1ccccc1)c1ccc(Br)s1` [Example 104, 5-bromo-N-[(S)-2-hydroxy-1-phenylethyl]thiophene-2-sulfonamide], the fold induction at 20 µg/mL worked out at 2.5. As to `O=S(=O)(N[C@H](CO)CSCc1ccccc1)c1ccc(Br)s1` [Example 114, N-[R-2-(benzylthio)-1-(hydroxymethyl)ethyl]-5-bromothiophene-2-sulfonamide], the fold induction at 20 µg/mL worked out at 1.8.

As to `CCC(CC)[C@@H](CO)NS(=O)(=O)c1cccs1` [Example 226, N-[(S)-2-Ethyl-1-(hydroxymethyl)butyl]thiophene-2-sulfonamide], the fold induction at 20 µg/mL was 7.6. On to `Cc1cccc(CSC[C@@H](CO)NS(=O)(=O)c2ccc(Br)s2)c1` [Example 115, 5-bromo-N-(R-2-hydroxy-1-{[(3-methylbenzyl)thio]methyl}ethyl)thiophene-2-sulfonamide], for which the fold induction at 20 µg/mL amounted to 4.4. As for `CC(C)C[C@@H](c1ccc(-c2ccccc2)cc1)[C@@H](CO)NS(=O)(=O)c1ccc(Cl)s1` [Example 55, N-[(1S,2S)-2-[1,1'-biphenyl]-4-yl-1-(hydroxymethyl)-4-methylpentyl]-5-chlorothiophene-2-sulfonamide], the fold induction at 20 µg/mL amounted to 1.9. Regarding `COC1CCC([C@@H](CO)NS(=O)(=O)c2ccc(Cl)s2)CC1` (stereo partly drawn) [Example 199, 5-Chloro-N-[(S)-2-hydroxy-1-(4-methoxycyclohexyl)ethyl]thiophene-2-sulfonamide], the fold induction at 20 µg/mL worked out at 2.8. Same read-out and setting: with `CCC[C@H](c1ccccc1)[C@@H](CO)NS(=O)(=O)c1ccc(Cl)s1` [Example 38, 5-chloro-N-[(1S,2R)-1-(hydroxymethyl)-2-phenylpentyl]thiophene-2-sulfonamide] the figure was 4.1; with `C[C@@H](c1ccccc1)[C@@H](CO)NS(=O)(=O)c1ccc(Cl)s1` [Example 46, 5-chloro-N-[(1S,2S)-1-(hydroxymethyl)-2-phenylpropyl]thiophene-2-sulfonamide], 5.8.

Take `CCC[C@H](CC)[C@@H](CO)NS(=O)(=O)c1ccc(Br)s1` [Example 60, 5-bromo-N-[(1S,2S)-2-ethyl-1-(hydroxymethyl)pentyl]thiophene-2-sulfonamide]: the fold induction at 20 µg/mL amounted to 6.9. Turning to `CCCCCC[C@@H](CC)[C@@H](CO)NS(=O)(=O)c1ccc(Cl)s1` [Example 77A, 5-Chloro-N-[(1S,2R)-2-ethyl-1-(hydroxymethyl)octyl]thiophene-2-sulfonamide], the fold induction at 20 µg/mL amounted to 3.1. With `C[C@@H](c1ccccc1)[C@@H](CO)NS(=O)(=O)c1ccc(Br)s1` [Example 66, 5-bromo-N-[(1S,2S)-1-(hydroxymethyl)-2-phenylpropyl]thiophene-2-sulfonamide], the fold induction at 20 µg/mL turned out to be 5.3. As to `CCC(CC)[C@@H](CO)NS(=O)(=O)c1ccc(Br)s1` [Example 58, 5-bromo-N-[(1S)-2-ethyl-1-(hydroxymethyl)butyl]thiophene-2-sulfonamide], the fold induction at 20 µg/mL stood at 10.

Consider `CC(C)[C@@](C)(CO)NS(=O)(=O)c1ccc(Br)s1` [Example 25, 5-Bromo-N-[(1S)-1-(hydroxymethyl)-1,2-dimethylpropyl]thiophene-2-sulfonamide], for which the fold induction at 20 µg/mL was determined as 7.5. Still for that read-out and setting: with `CCCCCC(NCCO)[C@@H](CO)NS(=O)(=O)c1ccc(Cl)s1` (stereo partly drawn) [Example 83, 5-chloro-N-[(1S)-2-[(2-hydroxyethyl)amino]-1-(hydroxymethyl)heptyl]-2-thiophenesulfonamide] the figure was 1.7. For the compound `CCCOC1CCC([C@@H](CO)NS(=O)(=O)c2ccc(Cl)s2)CC1` (stereo partly drawn) [Example 200, 5-chloro-N-[(S)-2-hydroxy-1-(4-propoxycyclohexyl)ethyl]thiophene-2-sulfonamide], the fold induction at 20 µg/mL stood at 2. For `CC(C)C[C@@H](c1ccco1)[C@@H](CO)NS(=O)(=O)c1ccc(Cl)s1` [Example 50, 5-chloro-N-[(1S,2R)-2-(2-furyl)-1-(hydroxymethyl)-4-methylpentyl]thiophene-2-sulfonamide], the fold induction at 20 µg/mL was found to be 7.7.

Consider `O=S(=O)(N[C@H](CO)C1Cc2ccccc2C1)c1ccc(Cl)s1` [Example 228, 5-Chloro-N-[(1S)-1-(2,3-dihydro-1H-inden-2-yl)-2-hydroxyethyl]thiophene-2-sulfonamide], for which the fold induction at 20 µg/mL worked out at 9.9. The same measure, in the same setting: with `CCC(CC)[C@H](NS(=O)(=O)c1ccc(Cl)s1)C(C)(C)O` [Example 223, 5-Chloro-N-[(S)-2-ethyl-1-(1-hydroxy-1-methylethyl)butyl]thiophene-2-sulfonamide] the figure was 5.6; with `C=CCNC1CCC([C@@H](CO)NS(=O)(=O)c2ccc(Cl)s2)CC1` (stereo partly drawn) [Example 215, 5-chloro-N-[(S)-2-hydroxy-1-(4-allylaminocyclohexyl)ethyl]thiophene-2-sulfonamide], 2.

Regarding `O=S(=O)(N[C@H](CO)C1CCC(NCc2ccncc2)CC1)c1ccc(Cl)s1` (stereo partly drawn) [Example 218, 5-chloro-N-[(S)-2-hydroxy-1-(4-(4-pyridyl)methylaminocyclohexyl)ethyl]thiophene-2-sulfonamide], the fold induction at 20 µg/mL was found to be 2.8. The same measure, in the same setting: with `CCC(CO)(CO)NS(=O)(=O)c1ccc(Br)s1` [Example 108, N-[1,1-bis(hydroxymethyl)propyl]-5-bromothiophene-2-sulfonamide] the figure was 2; with `CC(C)C[C@@H](c1cccnc1)[C@@H](CO)NS(=O)(=O)c1ccc(Br)s1` [Example 69, 5-bromo-N-[(1S,2S)-1-(hydroxymethyl)-4-methyl-2-pyridin-3-ylpentyl]thiophene-2-sulfonamide], 1.5; with `CC(C)[C@@](C)(CO)NS(=O)(=O)c1ccc(Cl)s1` [Example 26, 5-chloro-N-[(1S)-1-(hydroxymethyl)-1,2-dimethylpropyl]thiophene-2-sulfonamide], 5.

The same test, now with this note: read-out: APPI Fold Increase.
Turning to `CC1=CC(C)C(C(CO)NS(=O)(=O)c2ccc(Cl)s2)C(C)C1` (centres unmarked) [Example 22, 5-chloro-N-[2-hydroxy-1-(2,4,6-trimethylcyclohex-3-en-1-yl)ethyl]thiophene-2-sulfonamide], the fold induction at 20 µg/mL came out at 7.
